For orientation: inhibition means the percentage by which the read-out fell short of the control.

T1 sequence (P31652 whole entry): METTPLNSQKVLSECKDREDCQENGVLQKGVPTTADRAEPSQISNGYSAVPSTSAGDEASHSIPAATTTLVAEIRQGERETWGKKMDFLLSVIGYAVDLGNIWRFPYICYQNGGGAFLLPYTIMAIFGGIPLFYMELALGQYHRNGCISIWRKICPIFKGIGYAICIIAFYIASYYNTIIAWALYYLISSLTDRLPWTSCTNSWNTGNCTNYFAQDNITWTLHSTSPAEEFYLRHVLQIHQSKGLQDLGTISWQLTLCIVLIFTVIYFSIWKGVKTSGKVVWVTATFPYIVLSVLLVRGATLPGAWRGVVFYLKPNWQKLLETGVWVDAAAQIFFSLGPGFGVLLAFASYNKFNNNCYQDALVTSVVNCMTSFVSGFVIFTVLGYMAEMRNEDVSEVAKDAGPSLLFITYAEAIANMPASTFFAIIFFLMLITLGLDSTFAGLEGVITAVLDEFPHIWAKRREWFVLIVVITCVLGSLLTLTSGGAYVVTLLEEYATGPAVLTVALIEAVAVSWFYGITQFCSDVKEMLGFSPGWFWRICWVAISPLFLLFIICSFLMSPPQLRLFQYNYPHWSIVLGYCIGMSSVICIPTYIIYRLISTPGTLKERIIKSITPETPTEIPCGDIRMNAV

The test system of the first test is batrachotoxin (BTX) binding site of the sodium channel. Kind of test: Affinity to the batrachotoxin (BTX) binding site of the sodium channel. The following applies: Table II; rat cerebrocortex synaptosomes; test concentration not given.
As to `Cl.O=C(C(c1ccccc1)c1ccccc1)N1CCC2(CC1)N[C@@H](Cc1ccccc1)C(=O)N2Cc1ccccc1` [Example 56, 1,3-(S)-dibenzyl-8-diphenylacetyl-1,4,8-triazaspiro[4,5]decan-2-one hydrochloride], the BTX inhibition is 67. Compound `Cl.O=C(c1ccc(Cl)cc1)N1CCC2(CC1)N[C@@H](Cc1ccccc1)C(=O)N2Cc1ccc(F)cc1` (racemic) [Example 28, 3-(S,R)-benzyl-8-(4-chlorobenzoyl)-1-(4-fluorobenzyl)-1,4,8-triazaspiro[4,5]decan-2-one hydrochloride] displayed a BTX inhibition of 47. Consider `COc1cccc(C(=O)N2CCC3(CC2)N[C@@H](Cc2ccccc2)C(=O)N3Cc2ccccc2)c1.Cl` [Example 61, 1,3-(S)-dibenzyl-8-(3-methoxybenzoyl)-1,4,8-triazaspiro[4,5]decan-2-one hydrochloride], for which the BTX inhibition stood at 41.

Still in this test, the particulars now being: Table III; rat cerebrocortex synaptosomes; test concentration not given.
`CCCCC(=O)N1CCC2(CC1)NCC(=O)N2Cc1cccc(C#N)c1` [Example 268, 3-(2-Oxo-8-pentanoyl-1,4,8-triazaspiro[4,5]dec-1-ylmethyl)benzonitrile] registered a BTX inhibition of 31.

On to `CC(C)CC1NC2(CCN(C(=O)CC3CCCC3)CC2)N(Cc2ccc(F)cc2)C1=O` (centres unmarked) [Example 197, 8-(2-Cyclopentylacetyl)-1-(4-fluorobenzyl)-3-isobutyl-1,4,8-triazaspiro[4,5]decan-2-one], for which the BTX inhibition is on record as 41.

For the compound `C=CCCC(=O)N1CCC2(CC1)NC(C(C)C)C(=O)N2CC=C` (centres unmarked) [Example 307, 1-Allyl-3-isopropyl-8-pent-4-enoyl-1,4,8-triazaspiro[4,5]decan-2-one], the BTX inhibition is on record as 31. The same measure, in the same setting: for `CSCCC1NC2(CCN(C(=O)c3cccc(Cl)c3F)CC2)N(Cc2cc(C)cc(C)c2)C1=O` (centres unmarked) [Example 156, 8-(3-Chloro-2-fluorobenzoyl)-1-(3,5-dimethylbenzyl)-3-(2-methylsulfanylethyl)-1,4,8-triazaspiro[4,5]decan-2-one] the value was 60; for `CCOc1ccc(C(=O)N2CCC3(CC2)NC(Cc2ccccc2)C(=O)N3C)cc1` (centres unmarked) [Example 135, 3-Benzyl-8-(4-ethoxybenzoyl)-1-methyl-1,4,8-triazaspiro[4,5]decan-2-one], 31; for `O=C(c1ccc(F)c(F)c1)N1CCC2(CC1)NCC(=O)N2CCOc1ccccc1` [Example 142, 8-(3,4-Difluorobenzoyl)-1-(2-phenoxyethyl)-1,4,8-triazaspiro[4,5]decan-2-one], 32. On the same count and under the same terms, in the case of `CN1C(=O)C(Cc2ccccc2)NC12CCN(C(=O)COc1ccccc1)CC2` (centres unmarked) [Example 184, 3-Benzyl-1-methyl-8-(2-phenoxyacetyl)-1,4,8-triazaspiro[4,5]decan-2-one] it was 62; in that of `CCCCN1C(=O)C(C(C)C)NC12CCN(C(=O)CC1CCCC1)CC2` (centres unmarked) [Example 201, 1-Butyl-8-(2-cyclopentylacetyl)-3-isopropyl-1,4,8-triazaspiro[4,5]decan-2-one], 42; in that of `CC(C)C1NC2(CCN(C(=O)C3COc4ccc(Cl)cc4C3)CC2)N(Cc2ccccc2C#N)C1=O` (centres unmarked) [Example 245, 2-[8-(6-Chloro-2H-chroman-3-carbonyl)-3-isopropyl-2-oxo-1,4,8-triazaspiro[4,5]dec-1-ylmethyl]benzonitrile], 60.

As for `CCCCC(=O)N1CCC2(CC1)NC(CCSC)C(=O)N2Cc1cc(C)cc(C)c1` (centres unmarked) [Example 189, 1-(3,5-Dimethylbenzyl)-3-(2-methylsulfanylethyl)-8-pentanoyl-1,4,8-triazaspiro[4,5]decan-2-one], the BTX inhibition is 40. The same measure, in the same setting: in the case of `CSCCC1NC2(CCN(C(=O)c3cccc(C)c3C)CC2)N(C)C1=O` (centres unmarked) [Example 166, 8-(2,3-Dimethylbenzoyl)-1-methyl-3-(2-methylsulfanylethyl)-1,4,8-triazaspiro[4,5]decan-2-one] it was 47; in that of `CSCCC1NC2(CCN(C(=O)C=Cc3cccc(C(F)(F)F)c3)CC2)N(C)C1=O` (centres unmarked) [Example 208, 1-Methyl-3-(2-methylsulfanylethyl)-8-[3-(3-trifluoromethylphenyl)acryloyl]-1,4,8-triazaspiro[4,5]decan-2-one], 33. In turn, `CC(C)CC1NC2(CCN(C(=O)c3ccc(C(F)(F)F)c(F)c3)CC2)N(Cc2ccccc2)C1=O` (centres unmarked) [Example 241, 1-Benzyl-8-(3-fluoro-4-trifluoromethylbenzoyl)-3-isobutyl-1,4,8-triazaspiro[4,5]decan-2-one] showed a BTX inhibition of 58.

Compound `CC(C)CC1NC2(CCN(C(=O)c3cc(C(F)(F)F)ccc3Cl)CC2)N(Cc2c(Cl)cccc2Cl)C1=O` (centres unmarked) [Example 326, 8-(2-Chloro-5-trifluoromethylbenzoyl)-1-(2,6-dichlorobenzyl)-3-isobutyl-1,4,8-triazaspiro[4,5]decan-2-one] came in with a BTX inhibition of 68.

In turn, `CCCCC(CC)C(=O)N1CCC2(CC1)NCC(=O)N2CCOc1ccccc1` (centres unmarked) [Example 133, 8-(2-Ethylhexanoyl)-1-(2-phenoxyethyl)-1,4,8-triazaspiro[4,5]decan-2-one] yielded a BTX inhibition of 35. As to `O=C(c1ccnc(Cl)c1)N1CCC2(CC1)NCC(=O)N2Cc1ccccc1F` [Example 300, 8-(2-Chloropyridin-4-carbonyl)-1-(2-fluorobenzyl)-1,4,8-triazaspiro[4,5]decan-2-one], the BTX inhibition is 33.

`CC(C)C1NC2(CCN(C(=O)c3cccc(Cl)c3F)CC2)N(Cc2ccccc2C#N)C1=O` (centres unmarked) [Example 247, 2-[8-(3-Chloro-2-fluorobenzoyl)-3-isopropyl-2-oxo-1,4,8-triazaspiro[4,5]dec-1-ylmethyl]benzonitrile]: the BTX inhibition came to 32. Same read-out and setting: in the case of `O=C(c1ccccc1C(F)(F)F)N1CCC2(CC1)NCC(=O)N2Cc1ccccc1F` [Example 303, 1-(2-Fluorobenzyl)-8-(2-trifluoromethylbenzoyl)-1,4,8-triazaspiro[4,5]decan-2-one] it was 30. As for `CSCCC1NC2(CCN(C(=O)c3c(-c4ccccc4Cl)noc3C)CC2)N(Cc2cc(C)cc(C)c2)C1=O` (centres unmarked) [Example 169, 8-[3-(2-Chlorophenyl)-5-methylisoxazole-4-carbonyl]-1-(3,5-dimethylbenzyl)-3-(2-methylsulfanylethyl)-1,4,8-triazaspiro[4,5]decan-2-one], the BTX inhibition was determined as 51. Compound `COc1ccc(CC(=O)N2CCC3(CC2)NC(CCSC)C(=O)N3Cc2ccc(F)cc2)cc1` (centres unmarked) [Example 215, 1-(4-Fluorobenzyl)-8-[2-(4-methoxyphenyl)acetyl]-3-(2-methylsulfanylethyl)-1,4,8-triazaspiro[4,5]decan-2-one] showed a BTX inhibition of 32.

The next test concerns the target T1, 5-HT transporter (Rattus norvegicus, UniProt P31652).
T1 construct: synaptosomes of rat brain areas are freshly isolated; from tissue; host or cells: rat brain synaptosomes (P2 fraction) from marrow and pons
Kind of test: Inhibition of 5-HT uptake in rat brain synaptosomes. Format: biochemical. The following applies: Table III; rat, 1 μM.
With `CC(=O)Nc1ccc(C(=O)N2CCC3(CC2)NC(CC(C)C)C(=O)N3CCCCOC(C)=O)cc1` (centres unmarked) [Example 255, Butyl 4-[8-(4-acetylaminobenzoyl)-3-isobutyl-2-oxo-1,4,8-triazaspiro[4,5]dec-1-yl]acetate], the “Uptake 5-HT, rat, 1 μM, % inhibition” value is 44%.

The same test, now with this note: read-out: Uptake 5-HT, % inhibition; Table III; rat, 1 μM.
Regarding `CCCCN1C(=O)C(CCSC)NC12CCN(C(=O)CCCOc1ccccc1)CC2` (centres unmarked) [Example 161, 1-Butyl-3-(2-methylsulfanylethyl)-8-(4-phenoxybutyryl)-1,4,8-triazaspiro[4,5]decan-2-one], the inhibition at 1 µM came out at 39%. As to `CCCCN1C(=O)C(Cc2ccccc2)NC12CCN(C(=O)c1snnc1C)CC2` (centres unmarked) [Example 243, 3-Benzyl-1-butyl-8-(4-methyl[1,2,3]thiadiazole-5-carbonyl)-1,4,8-triazaspiro[4,5]decan-2-one], the inhibition at 1 µM came out at 46%.

The values are drawn from patent US7951815B2, “Substituted 1,4,8-triazaspiro [4,5]decan-2-one compounds” (Gruenenthal GmbH, priority 2004, dated 2011).
